Experimental data published in ChEMBL document CHEMBL4177538, “Recent progress in prodrug design strategies based on generally applicable modifications” (Bioorg Med Chem Lett, 2017).

Key:
glucuronidase = experiment: Half life in phosphate buffered saline at pH 7 in presence of glucuronidase at 37 degC; type: ADME
[1] = Half life in phosphate buffered saline at pH 7.4 at 37 degC; type: physicochemical

| Structure (SMILES) | half-life (glucuronidase) [min] | half-life [1] [min] |
| --- | --- | --- |
| CC[C@@]1(O)C(=O)OCc2c1cc1n(c2=O)Cc2cc3cc(OCc4ccc(O[C@@H]5O[C@H](C(=O)O)[C@@H](O)[C@H](O)[C@H]5O)c([N+](=O)[O-])c4)ccc3nc2-1 | 20 |  |
| Cc1cccc(C)c1OCC(=O)N[C@@H](Cc1ccccc1)[C@H](OC(=O)CCC(=O)NCCN1CCCCC1)C(=O)N1CSC(C)(C)[C@H]1C(=O)NC(C)(C)C |  | 12 |
